The source of these data is patent US20100099642A1, “TGF-BETA STIMULANT AND FURTHER AGENT TO REDUCE SIDE EFFECTS” (TCP Innovations Limited, priority 2007, published 2010).

The test system of one assay is tgfb1 mRNA. Description: tgfb1 mRNA level by quantitative PCR in human aortic vascular smooth muscle cells. It is filed as cell-based. The note with it: 24 hrs, normalised to TBP, vs vehicle. As to the method: (1995) Cardiovasc. Res. 29:848-55). […] The cells were then incubated for either 24 hrs or 72 hrs depending on the experiment. All treatment conditions were established in triplicate. The level of mRNA for tgfb1, tgfb2 and tgfb3 were estimated by quantitative PCR. The media was removed and RNA was carefully prepared using the Ambion RNAqueous4PCR kit (Ambion#1914) in accordance with the manufacturer's instructions. The purity of the RNA and the quantity was assessed spectrophotometrically. […] This analysis results in both a gel-like image as well as electrophoretic data. Indications of RNA degradation are: (a) decreasing ratio of ribosomal bands (b) additional peaks bellow the ribosomal bands (c) Decrease in overall RNA signal (d) shift towards shorter fragments. All the mRNA samples used in the experiments presented here passed this RNA quality control step. Next, the RNA was converted to cDNA using the ABI High-Capacity cDNA Archive Kit, in accordance with manufacturer's instructions. The qPCR assay was then set up as follow: all cDNA samples were diluted to 180 μl total volume using Molecular grade water. Samples were vortexed to ensure thorough mixing. cDNA was aliquoted into ABI 384 well plates using a multi-channel pipette, 4.5 μl of sample into each well. Samples were assayed in triplicate (that is, nine determinations in total were made for each condition, being three separate assays on each of three replicate culture wells). The assay mix and Universal Master Mix were prepared and aliquoted across the 384 well plates 5.5 μl in each well, using a single channel pipette. The final composition of each reaction (10 μl) being: Primer/Probe assay mix (×20)=0.5 μl; Universal Master Mix=5 μl; cDNA=4.5 μl. The plates were then heat sealed using Abgene clear seal strong plastic heat seals, and then cycled and scanned using the […] under the following conditions: 95° C. for 10 minutes to activate the AmpliTaq GOLD, then 40 cycles of: 95° C. for 15 Sec (Denaturation), 60° C. for 60 […]). […] Quantitative PCR was performed using several primer/probe sets. […] We used both commercially available primer/probe sets (ABI Taqman pre-validated assays), using both available sets in the ABI database for tgfb1 and tgfb2, as well as the single available set for tgfb3. In addition, we used our own manual design probe/primer set for each of tgfb1, tgfb2 and tgfb3. For normalisation, we used TATA-binding protein (TBP) as the primary normalisation standard, with GAPDH as an alternative for confirmation, using ABI Taqman pre-validated probe/primer sets. […] Neither TBP nor GAPDH mRNA levels are affected by TGF-beta and are therefore equally suitable, however TBP was selected as the primary normalisation standard because the absolute level of mRNA in most cell types is similar to that of the TGF-beta isoforms, resulting in lower errors on calculating the ratio, and improving the power of the experiment. In all quantitative PCR experiments, several additional controls were included: firstly, a control for each sample is run with no reverse transcription to ensure the mRNA sample is not contaminated with genomic DNA (although the manual design probe/primer sets were all selected to cross an exon/exon boundary, ensuring no detectable amplicon is produced from genomic DNA templates). Secondly, a control reaction is run using serial 2-fold dilutions of a standard cDNA preparation (prepared from commercially available IMAGE clones). This control ensures that the results for the unknown samples are obtained in the linear range of the amplification process, and are therefore truly quantitative. Failure of either control led to the repeat of the entire experiment. Typically, the half maximal signal was obtained after 20-30 amplification cycles. […]

Another assay concerns apoE-deficient mice. Description: vascular lipid lesion formation at the aortic root (Oil Red O) in apoE-deficient mice. It is filed as in vivo, mouse. The note with it: 12 weeks in chow, TMX 1 mg/kg/day, Aspirin 30 mg/kg/day, mean ± SD, n = 8. From the text:
Adult male apoE-deficient mice, back-crossed onto a C57B16 background for at least five generations, were randomised into groups of eight animals at 12 weeks of age, such that each group had similar average body weight. […] Note that the mice receiving both compounds received food pellets into which a homogenous mixture of the ingredients had been compounded, and not a mixture of food pellets each containing one of the two active ingredients. The amount of food eaten and the body weight of each mouse was monitored daily for the first week, and once per week thereafter. After 12 weeks of treatment, the mice were sacrificed by CO2 asphyxiation, and heart & lung blocks were excised, embedded in Cryo-M-bed (Bright Instruments, UK) without fixation and snap frozen in liquid nitrogen.
Sections were then prepared from the aortic root according to the Paigen Strategy (a defined sequence of cutting sections which allow reproducible comparison between animals; see for example Grainger et al. (1995) Nature Med. 1:1067-72 and the references therein). 4 μm crysosections were cut using a motordriven cryotome (Bright Instruments) and collected onto poly-L-lysine coated glass microscope slides, then fixed in ice-cold acetone for 90 secs, allowed to air dry and stored at −20° C. until analysed.
The extent of vascular lipid lesion formation was assessed by Oil Red O staining, with a Fast Green counterstain, a standard histological procedure well known in the art. Briefly, five sections (selected according to the Paigen strategy) from each animal were passed through graded alcohol solutions, then stained in Oil Red O for 12 minutes, washed several times and then counterstained by dipping in Fast Green for 5-10 secs, and then dip washed in several changes of clean water. After air drying, an appropriate mountant was applied (simple glycerol-based moutants are most appropriate for this task), followed by a coverslip using acrylic varnish surrounding the coverslip to hold it in place. Slides were then analysed using a simple inverted microscope (no phase contrast; 10× objective; Olympus AX series), fitted with a digital camera to capture images of the entire aortic wall. The images were subsequently processed, blind to the treatment status of the animal, using Openlab image analysis software (Improvision, UK) running on an Apple Macintosh computer. […]
Mice were sacrificed and heart & lung blocks prepared and processed exactly as described in Example 2. […] The extent of lipid lesion formation was assessed by Oil Red O staining with Fast Green counterstain, exactly as in example 2.

Turning to `CC(=O)Oc1ccccc1C(=O)O` [Aspirin, acetylsalicylic acid], the “Level of tgfb1 mRNA, estimated by qPCR” value with tgfb1 mRNA (10 μM A) is recorded as 1.01 ± 0.04 fold-change; with tgfb1 mRNA (33 μM A), 0.93 ± 0.11 fold-change; in the assay with tgfb1 mRNA (100 μM A) it was 1.06 ± 0.08 fold-change. In addition, in the assay on apoE-deficient mice, the Total intimal area is given as 65,209 ± 6,712 μm2.
Take `CC/C(=C(\c1ccccc1)c1ccc(OCCN(C)C)cc1)c1ccccc1` [Tamoxifen]: the “Level of tgfb1 mRNA, estimated by qPCR” value is given as 0.95 ± 0.16 fold-change in the assay with tgfb1 mRNA (3.3 μM T); 1.27 ± 0.09 fold-change in the assay on tgfb1 mRNA (10 μM T); 1.41 ± 0.08 fold-change in the assay on tgfb1 mRNA (33 μM T, listed as T); “approximately 1.4 fold-change” in the assay with tgfb1 mRNA (33 μM T, listed as TMX). Moreover, in the assay on apoE-deficient mice, the “Intimal lipid lesion area” value is given as 9,393 ± 2,221 μm2. Also, in the assay on apoE-deficient mice, the Lipid lesion area is given as 10,794 ± 2,820 μm2. In the assay on apoE-deficient mice, the Total intimal area is given as 64,428 ± 4,294 μm2.
